In ChEMBL document CHEMBL1158031, “Biscembranes from the soft coral Sarcophyton glaucum” (J Nat Prod, 2006):
Active and inactive are the calls of the source. No cut-off for these calls is given here.

Key:
HL-60 [1] = experiment: Cytotoxicity against human HL-60 upto 100 uM; assay type: functional, cell-based
HL-60 [2] = experiment: Cytotoxicity against human HL-60; assay type: functional, cell-based

Row | SMILES | Activity (HL-60 [1]) | IC50 (HL-60 [2])
1 | COC(=O)[C@]12CC(=O)[C@H](C(C)C)CC(=O)/C(C)=C/CC/C(C)=C/C(=O)[C@H]1CC(C)=C1C[C@H](O)[C@](C)(O)[C@H]3CC[C@@](C)(O)[C@H](CC/C(C)=C/[C@@H]12)O3 | inactive | 
2 | COC(=O)[C@]12CC(=O)[C@H](C(C)C)CC(=O)/C(C)=C/CC/C(C)=C/C(=O)[C@H]1CC(C)=C1C[C@H](OC(C)=O)[C@](C)(O)[C@H]3CC[C@@](C)(O)[C@H](CC/C(C)=C/[C@@H]12)O3 | inactive | 
3 | COC(=O)[C@]12CC(=O)[C@H](C(C)C)CC(=O)/C(C)=C/CC/C(C)=C\C(=O)[C@H]1CC(C)=C1C[C@H](OC(C)=O)[C@](C)(O)[C@H]3CC[C@@](C)(O)[C@H](CC/C(C)=C/[C@@H]12)O3 [BISGLAUCUMLIDE C] |  | 33.7 µM
4 | COC(=O)[C@]12CC(=O)[C@H](C(C)C)CC(=O)/C(C)=C\CC/C(C)=C\C(=O)[C@H]1CC(C)=C1C[C@H](OC(C)=O)[C@](C)(O)[C@H]3CC[C@@](C)(O)[C@H](CC/C(C)=C/[C@@H]12)O3 [BISGLAUCUMLIDE D] |  | 42.3 µM
